Values after ≈ are worked out from the molar mass of the structure shown. Where two headings read alike, the source gives them in different places.
Assays:
Staphylococcus aureus [1] = assay: MIC by microdilution method, S. aureus; assay type: cell-based; details: read-out: MIC S. aureus
Experimental: (§1) According to the reported method, the OSe agents’ antimicrobial properties were estimated against Staphylococcus aureus (S. aureus), Escherichia coli (E. coli), and Candida albicans (C. albicans) microbial strains using the agar well diffusion assay. In addition, the MICs (in […]) were also recorded via the microdilution method following the reported procedure. Experimental details can be found in the Supplementary Materials Section S1 [16, 18].
(§2) In general, C. Albicans fungus and S. aureus gram-positive bacteria were more sensitive than gram-negative bacteria toward the OSe compounds. […]
(§3) Briefly, a concentration of 1 mM was prepared for each compound by dissolving in DMSO. […]
(§4) Furthermore, the MICs (in µM) were determined by the microdilution method according to the
1.1.3. […]

Escherichia coli [2] = assay: Agar well diffusion assay, E. coli; assay type: cell-based; details: ratio of inhibition zone to that of positive control
Experimental: as §1
(§5) The promising anticancer activities manifested by the OSe compounds encourage us to further evaluate their respective antimicrobial activity against a panel of gram-negative bacteria (e.g., E. coli) and the gram-positive bacteria (e.g., S. aureus) as well as a fungal strain (C. albicans) using the method of agar diffusion. The clotrimazole antifungal and the ampicillin antibacterial drugs were used as the positive controls. […]
(§6) 1.1.2. The antimicrobial activity
(§7) The antimicrobial activities of the OSe compounds were evaluated against C. albicans yeast as well as E. coli gram-negative and S. aureus gram-positive bacteria employing the agar well diffusion assay [ 4 ] .
(§8) Briefly, a concentration of 1 mM was prepared for each compound by dissolving in DMSO.
(§9) Paper discs of standard size […] were sterilized in an autoclave and soaked in 9 µL of the test compounds, and placed in the Petri dishes, which in turn contain a nutrient media (agar 9 g, peptone 5 g, and beef extract 3 g) seeded with the dedicated strain. Incubation lasted for 13 h at 36 0C. Experiments were replicated three times and the antifungal clotrimazole and antibiotic ampicillin were used as standards. The % activity index for the complex was determined and depicted in table 2. […]

Staphylococcus aureus [3] = assay: Agar well diffusion assay, S. aureus; assay type: cell-based; details: ratio of inhibition zone to that of positive control
Experimental: as §1, §5, §6, §7, §8, §9

Staphylococcus aureus [4] = assay: Agar well diffusion assay, S. aureus; assay type: cell-based; details: read-out: S. aureus ZID
Escherichia coli [5] = assay: MIC by microdilution method, E. coli; assay type: cell-based; details: read-out: MIC E. coli
Experimental: as §1, §2, §3, §4
1.1.3. […]

Escherichia coli [6] = assay: Agar well diffusion assay, E. coli; assay type: cell-based; details: read-out: E. coli ZID
Candida albicans [7] = assay: MIC by microdilution method, C. albicans; assay type: cell-based; details: read-out: MIC C. Albicans
Experimental: as §1, §2, §3, §4
1.1.3. […]

Candida albicans [8] = assay: Agar well diffusion assay, C. albicans; assay type: cell-based; details: read-out: C. Albicans ZID
Candida albicans [9] = assay: Agar well diffusion assay, C. albicans; assay type: cell-based; set-up: concentration or dose not given beside the values; details: ratio of inhibition zone to that of positive control
Experimental: as §1, §5, §6, §7, §8, §9

WI-38 cells = assay: MTT assay, cytotoxicity against normal WI-38 fibroblasts; assay type: cell-based; details: Homo sapiens, WI-38, 24 h, read-out: WI38 IC50
Experimental: (§10) The anticancer activity of the OSe was performed using the MTT assay against liver (HepG2) and breast (MCF-7) carcinoma cells, as well as normal WI-38 cells following the reported method. Experimental details can be found in the Supplementary Materials Section S1.
(§11) Accordingly, the anticancer properties of the OSe hybrids were assessed against two cancer cell lines, i.e., HepG2 and MCF-7 cells. Furthermore, their corresponding cytotoxicity was also estimated against the immortalized lung WI-38 fibroblasts employing the MTT assay. The Adriamycin cancer drug was used as the positive control.
(§12) 1.1. The biological assays
(§13) 1.1.1. The anticancer activity
(§14) The breast adenocarcinoma (MCF-7), Hepatocellular carcinoma (HEPG-2), and normal fibroblast (WI-38) cells were obtained from ATCC via Holding company for biological products and vaccines (VACSERA), Cairo, Egypt. The reagents […] medium, MTT, DMSO, and fetal bovine serum was obtained from Sigma Aldrich. Dulbecco’s modified Eagle’s medium was used as the culture medium for the cells, and the cytotoxicity was evaluated using the reported MTT assay. Doxorubicin was used as the positive reference, and the IC50 values were obtained from the corresponding dose-response curve.
(§15) This colorimetric assay is based on converting the yellow tetrazolium bromide (MTT) to a purple formazan derivative by mitochondrial succinate dehydrogenase in viable cells. Cell lines were cultured in […] medium with 10% fetal bovine serum. Antibiotics added were 100 units/ml penicillin and 100µg/ml streptomycin at 37 C in a 5% Co2 incubator. The cell lines were seeded in a 96-well plate at a density of 1.0x10^4 cells/well. at 37 C for 48 h under 5% […]
(§16) Finally, dimethyl sulfoxide (DMSO) in the volume of 100 µl is added to each well to dissolve the purple formazan formed. […]

[10] = DPPH radical scavenging bioassay; details: for DPPH radical scavenging activity: 200 µL, 1 mM in MeOH, DPPH 400 µL, 30 min, 517 nm
Description: (§17) The DPPH and ABTS in vitro bioassays were used to assess the OSe antioxidant activities following the reported method. Experimental details can be found in the Supplementary Materials Section S1.
(§18) The redox modulation activities of the OSe compounds were extensively explored over the last decade owing to their chemopreventive and antioxidant potency. The latter is usually investigated by the ABTS and DPPH in vitro tests employing vitamin C as the positive control. The OSe compound’s magnitude estimated the antioxidant potential to decolorize the distinctive colors of the DPPH^. and ABTS^. radicals at 517 nm and 734 nm, respectively (Figure 2).
(§19) Figure 2 The OSe compounds redox activities assessment using the ABTS and DPPH experiments. All tests are mean ± SD. ABTS experiment: absorbance was followed at 734 nm for OSe compounds (50 µL, 1 mM in MeOH) and ABTS solution (60 µL). DPPH experiment: Absorbance was monitored after 30 min at 517 nm for OSe compounds (200 µL, 1 mM in MeOH) and DPPH (400 µL). […]
1.1.3. The antioxidant activity
1.1.3.1. The DPPH bioassay
The hydrogen atom or electron donation ability of the corresponding compounds was measured by estimating the bleaching of the purple color of a methanolic solution of DPPH [5]. This spectrophotometric assay uses stable DPPH. reagent. The sample was prepared by adding […] of the OSe compounds (1 mM in methanol) to […] DPPH in methanol. After 30 min of incubation in the dark, the absorbance was read against a blank at […]. Ascorbic acid (vitamin C) and ebselen were used as standard antioxidants (positive control). A blank sample was run without DPPH. A negative control sample was run using methanol instead of the sample. The radical scavenging activity was […]
using the following equation:
Inhibition%= (Ablank-Asample)/(Ablank)*100. […]

HepG2 cells = assay: MTT assay, antiproliferative activity, HepG2 liver carcinoma cells; assay type: cell-based; details: Homo sapiens, HepG2, 24 h, read-out: HepG2 IC50
Experimental: as §10
as §11, with “control. The concentration inhibition, 50%, needed to kill half of the cells (IC50) was estimated from (concentration-response plots) and tabulated in Table 1.” for “control.”
as §12, §13, §14, §15
Finally, dimethyl sulfoxide (DMSO) in the volume of 100 µl is added to each well to dissolve the purple formazan formed. The colorimetric assay is measured and recorded at an absorbance of 570 nm using a plate reader (EXL 800, USA). […]

MCF-7 cells = assay: MTT assay, antiproliferative activity, MCF-7 breast carcinoma cells; assay type: cell-based; details: Homo sapiens, MCF7, 24 h, read-out: MCF7 IC50
Experimental: as §10, §11, §12, §13, §14, §15, §16

[11] = ABTS radical scavenging bioassay; details: for ABTS radical scavenging activity: 50 µL, 1 mM in MeOH, ABTS solution 60 µL, 734 nm
Description: as §17, §18, §19
1.1.3.2. The ABTS bioassay
The antioxidant activity of the investigated compounds was assessed using 2,2’-azino-bis(3-ethylbenzothiazoline-6-sulphonic acid (ABTS) method. The radical cation derived from ABTS was prepared by the reaction of 60 mM ABTS solution with 0.3 M manganese dioxide solution in 0.1M phosphate buffer, pH 7. Then, the mixture was shaken, centrifuged, filtered, and the absorbance (Acontrol) of the resulting green-blue solution (ABTS radical solution) was measured at wavelength 734 nm. Then, […] of 1 mg/ml test compound in phosphate-buffered methanol was added. The absorbance (Atest) was measured. The reduction in color intensity was expressed as % inhibition. The % inhibition for each compound is calculated from the following equation
Inhibition% = (Acontrol-Asample)/(Acontrol)*100
Ascorbic acid (vitamin C) was used as a standard antioxidant (positive control). A blank sample was run without ABTS and using MeOH/phosphate buffer (1:1) instead of the sample. A negative control sample was run with MeOH/phosphate buffer (1:1) instead of a tested compound.

[12] = inhibition zone diameter, disks (6 mm) soaked with 20 μM
[13] = dose needed to decrease the absorbance by 50%

For CC1(C)S[C@@H]2[C@H](NC(=O)[C@H](N)c3ccccc3)C(=O)N2[C@H]1C(=O)O [Ampicillin, reference compound], the MIC (Staphylococcus aureus [1]; microdilution) was 1 µM (≈ 0.349 µg/mL), the “E. coli IA% (activity index)” value (Escherichia coli [2]) was 100% and the “S. aureus IA% (activity index)” value (Staphylococcus aureus [3]) was 100%. The zone of inhibition at 20 µM (Staphylococcus aureus [4]; [12]) was 21 mm, the MIC (Escherichia coli [5]; microdilution) was 0.5 µM (≈ 0.175 µg/mL) and the zone of inhibition at 20 µM (Escherichia coli [6]; [12]) was 23 mm.
In the case of Clc1ccccc1C(c1ccccc1)(c1ccccc1)n1ccnc1 [Clotrimazole, reference compound], the MIC (Candida albicans [7]; microdilution) is reported as 2 µM (≈ 0.69 µg/mL), the zone of inhibition at 20 µM (Candida albicans [8]; [12]) is reported as 24 mm and the “C. Albicans IA% (activity index)” value (Candida albicans [9]) is reported as 100%.
For COC(=O)c1cc([Se]C#N)ccc1N [Compound 4, Methyl 2-amino-5-selenocyanatobenzoate], the IC50 (WI-38 cells) was 52.6 ± 3.1 µM, the melting point was 118 to 119 °C and the “E. coli IA% (activity index)” value (Escherichia coli [2]) was 60.9%. The “DPPH radical scavenging activity” value [10] was 81%, the IC50 (HepG2 cells) was 11.2 ± 1 µM and the IC50 (MCF-7 cells) was 23.4 ± 1.8 µM. For the same molecule, the “S. aureus IA% (activity index)” value (Staphylococcus aureus [3]) was 76.2%, the zone of inhibition at 20 µM (Candida albicans [8]) was 18 mm and the zone of inhibition at 20 µM (Staphylococcus aureus [4]) was 16 mm. For the same molecule, the “C. Albicans IA% (activity index)” value (Candida albicans [9]) was 75%, the “ABTS radical scavenging activity” value [11] was 73% and the zone of inhibition at 20 µM (Escherichia coli [6]) was 14 mm.
With COC(=O)c1cc([Se][Se]c2ccc(N)c(C(=O)OC)c2)ccc1N [Compound 5, dimethyl 5,5′-diselanediylbis(2-aminobenzoate)] the IC50 (WI-38 cells) was 35.9 ± 2.3 µM, the “E. coli IA% (activity index)” value (Escherichia coli [2]) was 82.6% and the “DPPH radical scavenging activity” value [10] was 92%. For the same molecule, the IC50 (HepG2 cells) was 7.08 ± 0.6 µM, the IC50 (MCF-7 cells) was 9.89 ± 0.7 µM and the “S. aureus IA% (activity index)” value (Staphylococcus aureus [3]) was 85.7%. For the same molecule, the zone of inhibition at 20 µM (Candida albicans [8]) was 21 mm, the zone of inhibition at 20 µM (Staphylococcus aureus [4]) was 18 mm and the “C. Albicans IA% (activity index)” value (Candida albicans [9]) was 87.5%. For the same molecule, the “ABTS radical scavenging activity” value [11] was 86% and the zone of inhibition at 20 µM (Escherichia coli [6]) was 19 mm.
With CCOC(=O)C(C#N)=NNc1ccc([Se][Se]c2ccc(NN=C(C#N)C(=O)OCC)c(C(=O)OC)c2)cc1C(=O)OC [Compound 6, dimethyl 5,5′-diselanediylbis(2-(2-(1-cyano-2-ethoxy-2-oxoethylidene) hydrazinyl) benzoate)] the IC50 (WI-38 cells) was 42.5 ± 2.6 µM, the melting point was 105 to 106 °C and the “E. coli IA% (activity index)” value (Escherichia coli [2]) was 69.6%. The “DPPH radical scavenging activity” value [10] was 85%, the IC50 (HepG2 cells) was 16.2 ± 1.2 µM and the IC50 (MCF-7 cells) was 15.9 ± 1.2 µM. For the same molecule, the “S. aureus IA% (activity index)” value (Staphylococcus aureus [3]) was 76.2%, the zone of inhibition at 20 µM (Candida albicans [8]) was 17 mm and the zone of inhibition at 20 µM (Staphylococcus aureus [4]) was 16 mm. The “C. Albicans IA% (activity index)” value (Candida albicans [9]) was 70.8%, the “ABTS radical scavenging activity” value [11] was 69% and the zone of inhibition at 20 µM (Escherichia coli [6]) was 16 mm.
COC(=O)c1cc([Se]C)ccc1N [Compound 14, methyl 2-amino-5-(methylselanyl) benzoate] gave an IC50 (WI-38 cells) of 62.4 ± 3.6 µM, an MIC (Candida albicans [7]) of 2 µM (≈ 0.488 µg/mL) and an MIC (Staphylococcus aureus [1]) of 2 µM (≈ 0.488 µg/mL). For the same molecule, the “E. coli IA% (activity index)” value (Escherichia coli [2]) was 91.3%, the “DPPH radical scavenging activity” value [10] was 96% and the IC50 [10, 13] was 18.67 ± 0.12 µM. The IC50 (HepG2 cells) was 3.57 ± 0.1 µM, the IC50 (MCF-7 cells) was 5.64 ± 0.3 µM and the “S. aureus IA% (activity index)” value (Staphylococcus aureus [3]) was 90.5%. For the same molecule, the zone of inhibition at 20 µM (Candida albicans [8]) was 24 mm, the zone of inhibition at 20 µM (Staphylococcus aureus [4]) was 19 mm and the “C. Albicans IA% (activity index)” value (Candida albicans [9]) was 100%. The MIC (Escherichia coli [5]) was 0.5 µM (≈ 0.122 µg/mL), the “ABTS radical scavenging activity” value [11] was 91% and the IC50 [11, 13] was 29.14 ± 0.2 µM. It also gave a zone of inhibition at 20 µM (Escherichia coli [6]) of 21 mm.

— article PMC9775310, “Anticancer, Antimicrobial, and Antioxidant Activities of Organodiselenide-Tethered Methyl Anthranilates” (Biomolecules, 2022)
